Data reported in PMC10300102, “In vivo inhibition of nuclear ACE2 translocation protects against SARS-CoV-2 replication and lung damage through epigenetic imprinting” (Nature Communications, 2023).
Where “and” joins values, the source holds several entries; their conditions need not be identical. Equal values may be shown once. Read-outs that look alike come from different tables or passages of the source. Where a SMILES comes first, the peptide text is derived from it. The star is where a group is joined. Myristoyl = CCCCCCCCCCCCCC(=O)*

How the values were obtained:
[1] = system: importin-α ΔIBB protein / ACE2 FITC peptide (ACE2-IMPα complex); assay: Fluorescence polarization competition assay; type: binding; conditions: Fig. 1b, c: EMSA, microscale thermophoresis and fluorescence polarization
Experimental: Fluorescence polarization assays were performed using the CLARIOstar Plus plate reader (BMG Labtech, Ortenberg, Germany) with the fluorescein-Ahx-tagged ACE2 peptide sequence ^766[…]^779 manufactured by GeneScript Biotech (Piscataway, NJ), NACE2i peptide sequence MYR-[…]-OH manufactured by Mimitopes Pty Ltd (Melbourne, Australia), and recombinantly expressed importin-α ΔIBB protein. Each assay contained 50 nM ACE2 FITC, 10 μM importin-α ΔIBB protein, and two-fold serially-diluted NACE2i (starting concentration 400 μM) across 10 wells in a total volume of 200 μL. Fluorescence polarization readings were taken using 96-well black Fluotrac microplates (Greiner Bio-One, Kremsmünster, Austria). Assays were repeated in triplicate and contained a negative control (no inhibitor) and blank (no importin-α ΔIBB protein). Triplicate data were normalized and fitted to a single inhibition curve using GraphPad Prism (GraphPad Software, La Jolla, CA).

SARS-CoV-2 = type: in vivo, golden Syrian hamsters
CD14+ monocytes = type: cell-based, human
[2] = set-up: species or system golden Syrian hamsters; conditions: hamster, in vivo
[3] = system: lung bronchiole and alveoli cell types; assay: Cell type deconvolution analysis of NanoString DSP data; type: in vivo, golden Syrian hamsters; set-up: cell type proportion: macrophages: unit not given here; conditions: for cell type proportion: B / cell type proportion: NK / cell type proportion: T / cell type proportion: Treg / cell type proportion: endothelial / cell type proportion: fibroblasts / cell type proportion: mDCs / cell type proportion: macrophages / cell type proportion: mast / cell type proportion: monocytes / cell type proportion: neutrophils / cell type proportion: pDCs / cell type proportion: plasma: individual ROIs of H023 and H017
Experimental: Cell type deconvolution analysis was performed using R package SpatialDecon[68]. The Q3 normalized count matrix from NanoString DSP data and the safeTME[68] immune cell profile matrix were used as the query and reference input, respectively, to reveal cell type abundance within each of the selected ROIs. Cell type proportion for each selected ROI was visualized using a stack bar plot, where ROIs were grouped by tissue region (bronchioles vs. alveoli) and experimental condition (control and NACE2i-treated samples). In addition, given the non-normal distribution of the data, the Wilcoxon test was performed to compare each cell type proportion in controls against NACE2i-treated ROIs. The distribution of each cell type and p-value for the comparisons were visualized in box plots.

PBMCs = type: cell-based, human; conditions: 10 µM 24 h

CCCCCCCCCCCCCC(=O)N[C@H](C(=O)NCC(=O)N[C@H](C(=O)N[C@@H](CCCNC(=N)N)C(=O)N[C@@H](CC(=O)O)C(=O)N[C@@H](CCCNC(=N)N)C(=O)N[C@@H](CCCCN)C(=O)N[C@@H](CCCCN)C(=O)N[C@@H](CCCCN)C(=O)N[C@@H](CC(N)=O)C(=O)N[C@@H](CCCCN)C(=O)N[C@@H](C)C(=O)N[C@@H](CCCNC(=N)N)C(=O)N[C@@H](CO)C(=O)O)[C@@H](C)CC)[C@@H](C)O [NACE2i] (Myristoyl-TGIRDRKKKNKARS-OH)
inhibition of the ACE2-IMPα complex in vitro [1]: directly inhibiting the ACE2-IMPα complex
viral RNA in the lungs (SARS-CoV-2; hamster, in vivo): significant reductions
decrease in lung viral RNA normalized to vehicle controls (SARS-CoV-2; n=7, 15 mg/kg): 88%
decrease in lung viral RNA normalized to vehicle controls (SARS-CoV-2; n=8, 100 mg/kg): 96%
ACE2me expression in CD14+ monocytes (CD14+ monocytes): induced
CD14+ACE2 NFI (CD14+ monocytes): 581.219 and 687.373 and 742.928 and 1006.4 and 850.738 and 975.203 and 677.429 and 828.535
IL-6 expression in CD14+ monocytes (CD14+ monocytes): significantly decreased
nuclear ACE2 expression in CD14+ monocytes (CD14+ monocytes): significantly decreased
nuclear ACE2 expression in infected CD14+ monocytes (CD14+ monocytes): reduced
decrease in mean body weights [2]: lower than vehicle controls
cell type proportion: B ([3]; Alveoli_NACE2i): 23.6847 and 32.4439 and 22.6247 and 29.4388 and 26.4374 and 25.048 and 27.5277 and 28.9903 and 27.2409 and 34.2892 and 28.9637 and 28.8675
cell type proportion: NK ([3]; Alveoli_NACE2i): 17.1939 and 16.5847 and 20.9543 and 18.0108 and 22.2943 and 18.4617 and 20.087 and 18.6524 and 17.3616 and 14.6317 and 17.3619 and 17.6717
cell type proportion: T ([3]; Alveoli_NACE2i): 16.6413 and 6.4009 and 15.4997 and 7.4175 and 8.025 and 5.045 and 6.1551 and 0 (2×) and 10.2833 and 5.973 and 3.9643
cell type proportion: Treg ([3]; Alveoli_NACE2i): 0 (6×) and 1.553 and 8.1921 and 4.323 and 1 and 11.0807 and 5.06
cell type proportion: endothelial ([3]; Alveoli_NACE2i): 28.1806 and 29.4553 and 29.583 and 29.8626 and 25.5168 and 33.6067 and 33.1024 and 36.1595 and 33.2493 and 33.1189 and 27.1461 and 36.2683
cell type proportion: fibroblasts ([3]; Alveoli_NACE2i): 1.176 and 0.714 and 0.4633 and 0.8459 and 0.7981 and 0.4825 and 0.7109 and 0.76 and 1.098 and 0.6031 and 0.7444 and 1.019
cell type proportion: mDCs ([3]; Alveoli_NACE2i): 0 (10×) and 0.2521 and 0.6557
cell type proportion: macrophages ([3]; Alveoli_NACE2i): 5.388 and 3.326 and 1.773 and 2.095 and 8.024 and 0.205 and 7.196 and 5.143 and 2.92 and 3.5372 and 2.755 and 4.269
cell type proportion: mast ([3]; Alveoli_NACE2i): 3.016 and 2.78 and 3.108 and 4.739 and 2.682 and 3.555 and 2.55 and 3.279 and 2.68 and 3.582 and 4.658 and 2.8819
cell type proportion: monocytes ([3]; Alveoli_NACE2i): 0.03537 and 0 (11×)
cell type proportion: neutrophils ([3]; Alveoli_NACE2i): 1.753 and 2.9035 and 1.994 and 3.2852 and 1.817 and 0.9729 and 2.361 and 0.2488 and 2.135 and 0.8335 and 0.7054 and 0.8644
cell type proportion: pDCs ([3]; Alveoli_NACE2i): 0
cell type proportion: plasma ([3]; Alveoli_NACE2i): 2.932 and 5.391 and 3.999 and 2.753 and 4.405 and 4.431 and 0.3105 and 2.193 and 2.376 and 2.431 and 2.621 and 3.0985
cell type proportion: B ([3]; Bronchiole_NACE2i): 0 (4×) and 36.4151 and 8.716 and 15.9886 and 32.8168 and 11.1034 and 35.5652 and 45.4372 and 7.351
cell type proportion: NK ([3]; Bronchiole_NACE2i): 23.9964 and 22.2229 and 20.8895 and 32.9425 and 10.1656 and 15.473 and 6.835 and 10.348 and 25.7402 and 11.1678 and 15.6048 and 32.6588
cell type proportion: T ([3]; Bronchiole_NACE2i): 18.2436 and 18.4266 and 38.1438 and 0 (3×) and 5.53 and 45.4382 and 35.2758 and 13.8104 and 20.1994 and 29.1879
cell type proportion: Treg ([3]; Bronchiole_NACE2i): 0 (5×) and 21.836 and 33.8509 and 20.1505 and 4.85 and 5.947 and 12.5635 and 16.1845
cell type proportion: endothelial ([3]; Bronchiole_NACE2i): 16.4013 and 5.225 and 10.2999 and 2.966 and 17.2008 and 10.2265 and 6.188 and 5.584 and 8.968 and 11.6958 and 12.5764 and 14.8185
cell type proportion: fibroblasts ([3]; Bronchiole_NACE2i): 2.825 and 0.8593 and 2.185 and 1.129 and 1.957 and 1.105 and 1.635 and 0.3982 and 0.8306 and 1.6 and 2.113 and 2.3944
cell type proportion: mDCs ([3]; Bronchiole_NACE2i): 0 (10×) and 0.9775 and 1.142
cell type proportion: macrophages ([3]; Bronchiole_NACE2i): 5.529 and 0 and 0.1628 and 4.651 and 2.104 and 14.1819 and 29.1261 and 22.5397 and 28.7793 and 1.462 and 3.082 and 5.048
cell type proportion: mast ([3]; Bronchiole_NACE2i): 7.052 and 8.207 and 2.9723 and 2.068 and 4.233 and 1.198 and 2.171 and 3.272 and 0 and 1.897 and 1.1071 and 8.014
cell type proportion: monocytes ([3]; Bronchiole_NACE2i): 0 (11×) and 0.2701
cell type proportion: neutrophils ([3]; Bronchiole_NACE2i): 9.945 and 11.5606 and 12.9563 and 15.2877 and 1.922 and 0 and 1.136 and 5.344 and 0.585 and 0.3256 and 4.512 and 3.83
cell type proportion: pDCs ([3]; Bronchiole_NACE2i): 0.5957 and 4.06 and 4.2347 and 0 (6×) and 1.875 and 1.074 and 1.693
cell type proportion: plasma ([3]; Bronchiole_NACE2i): 15.4112 and 7.333 and 8.156 and 7.105 and 0.3226 and 1.788 and 1.644 and 1.037 and 2.72 and 1.151 and 2.026 and 6.866
NK cells in bronchiolar regions ([3]; infected hamsters 2 dpi): increased
macrophages in bronchiolar regions ([3]; infected hamsters 2 dpi): significantly decreased
IL-6 expression (PBMCs): reduced
perforin expression (PBMCs): increased
